Assay [1] addresses T1, HCV NS5B (Hepatitis C virus genotype 1b, UniProt Q9WMX2).
T1 construct: The protein was expressed with an 18 amino acid C-terminal truncation to enhance the solubility; made in house; host or cells: E. coli BL21(DE3)
The experiment in a line: HCV NS5B RdRp enzyme assay. Format: biochemical. The settings on record: HCV NS5B RdRp genotype 1b enzyme. Here is the method:
HCV NS5B RdRp cloning, expression, and purification. The cDNA encoding the NS5B protein of HCV, genotype 1b, was cloned into the pET21a expression vector. The protein was expressed with an 18 amino acid C-terminal truncation to enhance the solubility. The E. coli competent cell line BL21(DE3) was used for expression of the protein. Cultures were grown at 37° C. for ˜4 hours until the cultures reached an optical density of 2.0 at 600 nm. The cultures were cooled to 20° C. and induced with 1 mM IPTG. Fresh ampicillin was added to a final concentration of 50 μg/ml and the cells were grown overnight at 20° C.
Cell pellets (3 L) were lysed for purification to yield 15-24 mgs of purified NS5B. The lysis buffer consisted of 20 mM Tris-HCl, pH 7.4, 500 mM NaCl, 0.5% triton X-100, 1 mM DTT, 1 mM EDTA, 20% glycerol, 0.5 mg/ml lysozyme, 10 mM MgCl2, 15 ug/ml deoxyribonuclease I, and Complete™ protease inhibitor tablets (Roche). After addition of the lysis buffer, frozen cell pellets were resuspended using a tissue homogenizer. To reduce the viscosity of the sample, aliquots of the lysate were sonicated on ice using a microtip attached to a Branson sonicator. The sonicated lysate was centrifuged at 100,000×g for 1 hr at 4° C. and filtered through a 0.2 μm filter unit (Corning).
The protein was purified using two sequential chromatography steps: Heparin sepharose CL-6B and polyU sepharose 4B (Pharmacia). The chromatography buffers were identical to the lysis buffer but contained no lysozyme, deoxyribonuclease I, MgCl2 or protease inhibitor and the NaCl concentration of the buffer was adjusted according to the requirements for charging the protein onto the column. Each column was eluted with a NaCl gradient which varied in length from 5-50 column volumes depending on the column type. After the final chromatography step, the resulting purity of the enzyme is >90% based on SDS-PAGE analysis. The enzyme was aliquoted and stored at −80° C.
Standard HCV NS5B RdRp enzyme assay. HCV RdRp genotype 1b assays were run in a final volume of 60 μl in 96 well plates (Corning 3600). The assay buffer is composed of 20 mM Hepes, pH 7.5, 2.5 mM KCl, 2.5 mM MgCl2, 1 mM DTT, 1.6 U RNAse inhibitor (Promega N2515), 0.01 mg/ml BSA (Sigma B6917), and 2% glycerol. All compounds were serially diluted (3-fold) in DMSO and diluted further in water such that the final concentration of DMSO in the assay was 2%. HCV RdRp genotype 1b enzyme was used at a final concentration of 28 nM. A polyA template was used at 6 nM, and a biotinylated oligo-dT12 primer was used at 180 nM final concentration. Template was obtained commercially (Amersham 27-4110). Biotinylated primer was prepared by Sigma Genosys. 3H-UTP was used at 0.6 μCi (0.29 μM total UTP). Reactions were initiated by the addition of enzyme, incubated at 30° C. for 60 min, and stopped by adding 25 μl of 50 mM EDTA containing SPA beads (4 μg/μl, Amersham RPNQ 0007). Plates were read on a Packard Top Count NXT after >1 hr incubation at room temperature.
Modified HCV NS5B RdRp enzyme assay. A modified enzyme assay was performed essentially as described for the standard enzyme assay except for the following: The biotinylated oligo dT12 primer was precaptured on streptavidin-coated SPA beads by mixing primer and beads in assay buffer and incubating at room temperature for one hour. Unbound primer was removed after centrifugation. The primer-bound beads were resuspended in 20 mM Hepes buffer, pH 7.5 and used in the assay at final concentrations of 20 nM primer and 0.67 μg/μl beads. Order of addition in the assay: enzyme (1.75 nM) was added to diluted compound followed by the addition of a mixture of template (0.36 nM), 3H-UTP (0.6 μCi, 0.29 μM), and primer-bound beads, to initiate the reaction; concentrations given are final. Reactions were allowed to proceed for 4 hours at 30° C.
IC50 values for compounds were determined using seven different [I]. […]

The subject of assay [2] is HCV replicon cells. The experiment in a line: HCV replicon FRET / luciferase assay. Format: cell-based. The settings on record: Hepatitis C virus; 50% reduction in FRET or luciferase activity in HCV replicon cells. On the procedure:
FRET Assay Preparation. The HCV FRET screening assay was performed in 96-well cell culture plates. The FRET peptide (Anaspec, Inc.) (Taliani et al., Anal. Biochem. 1996, 240, 60-67) contains a fluorescence donor, EDANS, near one end of the peptide and an acceptor, DABCYL, near the other end. The fluorescence of the peptide is quenched by […] resonance energy transfer (RET) between the donor and the acceptor, but as the NS3 protease cleaves the peptide the products are released from RET quenching and the fluorescence of the donor becomes apparent. The assay reagent was made as follows: 5× cell Luciferase cell culture lysis reagent from Promega (#E153A) diluted to 1× with dH2O, NaCl added to 150 mM final, the FRET peptide diluted to 20 μM final from a 2 mM stock.
To prepare plates, HCV replicon cells, with or without a Renilla luciferase reporter gene, were trypsinized and plated in a 96-well plate with titrated test compounds added in columns 3 through 12; columns 1 and 2 contained a control compound (HCV control inhibitor), and the bottom row contained cells with DMSO only. The plates were then placed in a CO2 incubator at 37° C.
Assays. Subsequent to addition of the test compounds described above (FRET Assay Preparation), at various times the plate was removed and Alamar blue solution (Trek Diagnostics, #00-100) was added to measure cellular toxicity. After reading in a Cytoflour 4000 instrument (PE Biosystems), plates were rinsed with PBS and then used for FRET assay by the addition of 30 ul of the FRET peptide assay reagent described above (FRET Assay Preparation) per well. The plate was then placed into the Cytoflour 4000 instrument which had been set to 340 excite/490 emission, automatic mode for up to 20 cycles and the plate read in a kinetic mode. Typically, the signal to noise using an endpoint analysis after the reads was at least three-fold. Alternatively, after Alamar blue reading, plates were rinsed with PBS, then used for luciferase assay using the Promega Dual-Glo Luciferase Assay System or the Promega EnduRen Live Cell Substrate assay.
Compound analysis was performed by quantification of the relative HCV replicon inhibition and the relative cytotoxicity values. To calculate cytoxicity values, the average Alamar Blue fluorescence signals from the control wells were set as 100% non-toxic. The individual signals in each of the compound test wells were then divided by the average control signal and multiplied by 100% to determine […]. To calculate the HCV replicon inhibition values, an average background value was obtained from the two wells containing the highest amount of HCV control inhibitor at the end of the assay period. These numbers were similar to those obtained from naïve Huh-7 cells. The background numbers were then subtracted from the average signal obtained from the control wells and this number was used as 100% activity. The individual signals in each of the compound test wells were then divided by the averaged control values after background subtraction and multiplied by 100% to determine percent activity. EC50 values were calculated as the concentration which caused a 50% reduction in FRET or luciferase activity. The two numbers generated for the compound plate, percent cytoxicity and percent activity, were used to determine compounds of interest for further analysis.

T1 sequence (Q9WMX2 2420-2992): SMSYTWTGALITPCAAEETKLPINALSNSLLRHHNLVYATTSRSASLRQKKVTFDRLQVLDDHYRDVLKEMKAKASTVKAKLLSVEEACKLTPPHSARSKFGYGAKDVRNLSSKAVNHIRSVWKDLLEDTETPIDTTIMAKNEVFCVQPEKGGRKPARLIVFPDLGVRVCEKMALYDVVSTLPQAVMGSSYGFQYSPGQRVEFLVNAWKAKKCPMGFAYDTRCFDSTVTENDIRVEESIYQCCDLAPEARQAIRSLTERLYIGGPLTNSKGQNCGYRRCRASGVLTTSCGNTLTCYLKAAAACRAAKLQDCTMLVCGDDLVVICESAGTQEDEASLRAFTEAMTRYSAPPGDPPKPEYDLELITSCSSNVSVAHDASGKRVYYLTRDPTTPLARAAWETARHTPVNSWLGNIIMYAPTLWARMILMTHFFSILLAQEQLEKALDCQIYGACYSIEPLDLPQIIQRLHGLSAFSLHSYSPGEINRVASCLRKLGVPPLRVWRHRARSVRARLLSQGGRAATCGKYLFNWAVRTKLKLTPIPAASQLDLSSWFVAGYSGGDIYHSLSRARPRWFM

In assay [1], `CCC1(S(=O)(=O)NC(=O)c2ccc3c(C4CCCCC4)c4n(c3c2)CC2(C(=O)N3C5CCC3CN(C)C5)CC2c2cc(OC)ccc2-4)CC1` (stereo not shown) gave a concentration for half-maximal inhibition (IC50) of 4.2 to 500 nM. In assay [2], this compound displayed an EC50 of 4.2 to 500 nM.

Regarding `COc1ccc2c(c1)C1CC1(C(=O)N1C3CCC1CN(C)C3)Cn1c-2c(C2CCCCC2)c2ccc(C(=O)NS(=O)(=O)C3(CC4CC4)CC3)cc21` (stereo not shown), the IC50 in assay [1] was 4.2 to 500 nM. The 50% effective concentration (EC50) in assay [2] was 4.2 to 500 nM.

Compound `COc1ccc2c(c1)C1CC1(C(=O)N1C3CCC1CN(C)C3)Cn1c-2c(C2CCCCC2)c2ccc(C(=O)NS(=O)(=O)c3cccc4cccnc34)cc21` (stereo not shown) showed a half-inhibitory concentration (IC50) in assay [1] of 4.2 to 500 nM. In addition, in assay [2], the EC50 is 4.2 to 500 nM.

Regarding `COCCS(=O)(=O)NC(=O)c1ccc2c(C3CCCCC3)c3n(c2c1)C[C@@]1(C(=O)N2C4CCC2CN(C)C4)C[C@H]1c1cc(OC)ccc1-3`, the IC50 in assay [1] lay within 4.2 to 500 nM. This compound had an EC50 in assay [2] of 4.2 to 500 nM.

Compound `COc1ccc2c(c1)[C@@H]1C[C@]1(C(=O)N1C3CCC1CN(C)C3)Cn1c-2c(C2CCCCC2)c2ccc(C(=O)NS(=O)(=O)CC3CCCO3)cc21` (stereo partly shown) yielded a half-inhibitory concentration (IC50) in assay [1] of 4.2 to 500 nM. This compound also had an EC50 in assay [2] of 4.2 to 500 nM.

`COc1ccc2c(c1)C1CC1(C(=O)N1C3CCC1CN(C)C3)Cn1c-2c(C2CCCCC2)c2ccc(C(=O)NS(=O)(=O)Cc3ccccn3)cc21` (stereo not shown): the IC50 in assay [1] lay within 4.2 to 500 nM. Besides, in assay [2], the concentration giving a half-maximal response (EC50) lay in the range of 4.2 to 500 nM.

`COc1ccc2c(c1)C1CC1(C(=O)N1C3CCC1CN(C)C3)Cn1c-2c(C2CCCCC2)c2ccc(C(=O)NS(=O)(=O)Cc3cccc(Cl)c3)cc21` (stereo not shown) yielded a half-maximal inhibitory concentration (IC50) in assay [1] of 4.2 to 500 nM. In assay [2], the 50% effective concentration (EC50) lay in the range of 4.2 to 500 nM.

`COc1ccc2c(c1)C1CC1(C(=O)N1C3CCC1CN(C)C3)Cn1c-2c(C2CCCCC2)c2ccc(C(=O)NS(=O)(=O)Cc3cc(Cl)cc(Cl)c3)cc21` (stereo not shown) came in with a concentration for half-maximal inhibition (IC50) in assay [1] of 4.2 to 500 nM. For the same compound, the concentration giving a half-maximal response (EC50) in assay [2] lay in the range of 4.2 to 500 nM.

Turning to `COc1ccc2c(c1)C1CC1(C(=O)N1C3CCC1CN(C)C3)Cn1c-2c(C2CCCCC2)c2ccc(C(=O)NS(=O)(=O)c3sc(C)nc3C)cc21` (stereo not shown), in assay [1], the half-inhibitory concentration (IC50) lay within 4.2 to 500 nM. For the same compound, the EC50 in assay [2] fell in the range of 4.2 to 500 nM.

Compound `COc1ccc2c(c1)C1CC1(C(=O)N1C3CCC1CN(C)C3)Cn1c-2c(C2CCCCC2)c2ccc(C(=O)NS(=O)(=O)c3nc[nH]n3)cc21` (stereo not shown) yielded an IC50 in assay [1] of 4.2 to 500 nM. The concentration giving a half-maximal response (EC50) in assay [2] lay within 4.2 to 500 nM.

Consider `C=CS(=O)(=O)NC(=O)c1ccc2c(C3CCCCC3)c3n(c2c1)CC1(C(=O)N2C4CCC2CN(C)C4)CC1c1cc(OC)ccc1-3` (stereo not shown), for which the IC50 in assay [1] fell in the range of 4.2 to 500 nM. The same compound registered an EC50 in assay [2] of 4.2 to 500 nM.

In the case of `COc1ccc2c(c1)C1CC1(C(=O)N1C3CCC1CN(C)C3)Cn1c-2c(C2CCCCC2)c2ccc(C(=O)NS(=O)(=O)C=C(C)C)cc21` (stereo not shown), the IC50 in assay [1] was 4.2 to 500 nM. The half-maximal effective concentration (EC50) in assay [2] lay in the range of 4.2 to 500 nM.

Consider `COc1ccc2c(c1)C1CC1(C(=O)N1C3CCC1CN(C)C3)Cn1c-2c(C2CCCCC2)c2ccc(C(=O)NS(=O)(=O)c3ncccn3)cc21` (stereo not shown), for which the IC50 in assay [1] was 4.2 to 500 nM. This compound also yielded a half-maximal effective concentration (EC50) in assay [2] of 4.2 to 500 nM.

Take `COc1ccc2c(c1)C1CC1(C(=O)N1C3CCC1CN(C)C3)Cn1c-2c(C2CCCCC2)c2ccc(C(=O)NS(=O)(=O)c3nc(C)cc(C)n3)cc21` (stereo not shown): the 50% inhibitory concentration (IC50) in assay [1] lay within 4.2 to 500 nM. The 50% effective concentration (EC50) in assay [2] was in the range of 4.2 to 500 nM.

The record behind these values is patent US8129367B2, “Compounds for the treatment of Hepatitis C” (Bristol-Myers Squibb Company, priority 2007, dated 2012).
